The subject of one series is RSV A2. The series is described as follows: RSV plaque reduction assay. The class given is cell-based, RSV (RSV A2 ECACC, 0709161v). Conditions: Hep-G2 cells, RSV A2, 2 days, mean of at least two experiments. In short, it runs like this: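 Hep-G2 monolayers infected with 100 PFU/well RSV A2 premixed with eight compound dilutions, 2 h at 37° C, then overlaid with 0.8% CMC/2% FBS DMEM containing compound for 2 days. Plaques immunostained (HRP/TrueBlue) and counted; EC50 from % infection versus virus control, mean of at least two experiments.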
(Plaques are areas of infected cells; plaque reduction assays count them against a control.)

The subject of the next series is Hep-G2 cells. The series is described as follows: Cell cytotoxicity CC50. The class given is cell-based. Conditions: mean of at least two experiments. An excerpt: (§1) Plates were scanned and analysed using the Immunospot S6 Macro analyser, which is equipped with BioSpot analysis software for counting immunostained plaques (virospots). Plaque counts were used to calculate % infection relative to the mean of the plaque count in the virus control wells for RSV. […] Plaque EC50 and cell toxicity CC50 values are a mean of at least two experiments and figures are rounded to whole units.

A short description of series [1]: Liver microsomal stability (rat). The class given is in vitro ADME. Conditions: 1 µM compound; for half-life at 1 µM: pooled liver microsomes, pH 7.4, 0.5 mg/mL protein, read-out: Liver Microsomal Stability t½. The procedure:
(§2) Compounds were subjected to the following assays to investigate liver microsomal stability.
(§3) Pooled liver microsomes were purchased from a reputable commercial supplier and stored at -80° C. prior to use. Microsomes (final protein concentration 0.5 mg/mL), 0.1 M phosphate buffer pH 7.4 and test compound (final substrate concentration 1 µM; final DMSO concentration 0.25%) were pre-incubated at 37° C. prior to the addition of NADPH (final concentration 1 mM) to initiate the reaction. The final incubation volume was 50 µL. A control incubation was included for each compound tested where 0.1 M phosphate buffer pH 7.4 was added instead of NADPH (minus NADPH). Two control compounds were included with each species. All incubations were performed singularly for each test compound. Each compound was incubated for 0, 5, 15, 30 and 45 min. The control (minus NADPH) was incubated for 45 min only. The reactions were stopped by transferring incubate into acetonitrile at the appropriate time points, in a 1:3 ratio. The termination plates are centrifuged at 3,000 rpm for 20 min at 4° C. to precipitate the protein. Following protein precipitation, the sample supernatants were combined in cassettes of up to 4 compounds, internal standard added, and samples analysed by LC-MS/MS. From a plot of In peak area ratio (compound peak area/internal standard peak area) against time, the gradient of the line was determined. Subsequently, half-life (t½) and intrinsic clearance (CLint) were calculated.

A short description of series [2]: Liver microsomal stability (human). The series is classed as in vitro ADME. To be noted: 1 µM compound; for half-life at 1 µM: pooled liver microsomes, pH 7.4, 0.5 mg/mL protein, read-out: Liver Microsomal Stability t½. The procedure: as §2, §3
In general terms: Liver microsomes are vesicles of endoplasmic reticulum, rich in cytochrome P450 enzymes.

A further series is described as follows: Cell cytotoxicity CC50. The class given is cell-based. Conditions: human; mean of at least two experiments.
From the text: as §1

Series [3] can be described thus: Liver microsomal stability (dog). The class given is in vitro ADME. To be noted: 1 µM compound; for half-life at 1 µM: pooled liver microsomes, pH 7.4, 0.5 mg/mL protein, read-out: Liver Microsomal Stability t½. Here is the method: as §2, §3
The test system of the next series is RSV. To be noted: Antimicrobial Agents and Chemotherapy, September 2007, 3346-3353; cited from earlier work.
Series [4] in a line: In vivo pharmacokinetics in rats. The arrangement: species or system rats [Sprague Dawley (SD)]. To be noted: male SD rats. Here is the method:
The pharmacokinetics of compounds were studied in vivo in rats at doses of 1 mg/kg (IV) and 10 mg/kg (PO).
Male rats [Sprague Dawley (SD)] surgically prepared with a jugular vein cannula were treated with experimental compounds via intravenous administration (IV; n=3; 1 mg/kg) or oral administration (PO; n=3; 10 mg/kg). Compounds were formulated as a solution in 40:60 dimethylacetamide:saline (IV administration) and a solution of 10% DMSO, 10% cremaphor in water (80%) (PO administration). […] Serial blood samples were collected via the cannula at 0.02, 0.08, 0.25, 0.5, 1, 2, 4, 6, 8 and 24 h post IV dosing of compound, and at 0.08, 0.25, 0.5, 1, 2, 4, 6, 8 and 24 h post oral dosing of compound, and plasma was prepared by centrifugation and stored immediately at -80° C. Samples were subsequently thawed, prepared for analysis by protein precipitation with acetonitrile, and analysed by tandem LCMS using electrospray ionisation using a matrix-matched calibration curve. PK parameters were calculated from the resulting data.

The mark [5] stands for this setting: human respiratory syncytial virus, HepG2, 48 h.

What is called EC50 is the midpoint of the concentration-response curve. For orientation: CC50 means the concentration giving 50% cytotoxicity. Read a low CC50 as greater toxicity to the cells. `CC1CCCn2nc(-c3ccc(F)cc3F)c(C(=O)N[C@H]3N=C(c4ccccc4)c4cccc(F)c4NC3=O)c2O1` (single isomer, unassigned) [Example 17-2, (5S*)-2-(2,4-difluorophenyl)-N-[(3S)-9-fluoro-2-oxo-5-phenyl-1,3-dihydro-1,4-benzodiazepin-3-yl]-5-methyl-5,6,7,8-tetrahydropyrazolo[5,1-b][1,3]oxazepine-3-carboxamide] yielded an EC50 with RSV A2 of 20 nM. In the series with Hep-G2 cells, this compound came in with a CC50 of over 25000 nM.
On the same counts, the results for `CCC1CCCn2nc(-c3ccccc3F)c(C(=O)N[C@H]3N=C(c4ccccc4)c4ccccc4NC3=O)c2O1` (single isomer, unassigned) [Example 24-2, (5S*)-5-ethyl-2-(2-fluorophenyl)-N-[(3S)-2-oxo-5-phenyl-2,3-dihydro-1H-1,4-benzodiazepin-3-yl]-5H,6H,7H,8H-pyrazolo[3,2-b][1,3]oxazepine-3-carboxamide] are 89 nM and over 25000 nM.
In the case of `CCC1CCCn2nc(-c3ccccc3F)c(C(=O)N[C@H]3N=C(c4ccccc4)c4cccc(F)c4NC3=O)c2O1` (single isomer, unassigned) [Example 25-2, (5S*)-5-ethyl-2-(2-fluorophenyl)-N-[(3S)-9-fluoro-2-oxo-5-phenyl-1,3-dihydro-1,4-benzodiazepin-3-yl]-5,6,7,8-tetrahydropyrazolo[5,1-b][1,3]oxazepine-3-carboxamide], the EC50 with RSV A2 was 83 nM. The CC50 in the series on Hep-G2 cells was over 25000 nM.
Taken in the same sequence, the figures for `CCC1CCCn2nc(-c3ccc(C)nc3)c(C(=O)N[C@H]3N=C(c4ccccc4)c4ccccc4NC3=O)c2O1` (single isomer, unassigned) [Example 26-2, (5S*)-5-ethyl-2-(6-methylpyridin-3-yl)-N-[(3S)-2-oxo-5-phenyl-2,3-dihydro-1H-1,4-benzodiazepin-3-yl]-5H,6H,7H,8H-pyrazolo[3,2-b][1,3]oxazepine-3-carboxamide] were 329 nM and over 25000 nM.
The compound `CCC1CCCn2nc(-c3ccc(C)nc3)c(C(=O)N[C@H]3N=C(c4ccccc4)c4cccc(F)c4NC3=O)c2O1` (single isomer, unassigned) [Example 27-2, (5S*)-5-ethyl-N-[(3S)-9-fluoro-2-oxo-5-phenyl-2,3-dihydro-1H-1,4-benzodiazepin-3-yl]-2-(6-methylpyridin-3-yl)-5H,6H,7H,8H-pyrazolo[3,2-b][1,3]oxazepine-3-carboxamide] had an EC50 with RSV A2 of 259 nM. In the series with Hep-G2 cells, this compound yielded a CC50 of over 25000 nM.
Take `O=C(N[C@H]1N=C(c2ccccc2)c2cccc(F)c2NC1=O)c1c(-c2ccccc2F)nn2c1OCCCC2` [Example 2, N-[(3S)-9-Fluoro-2-oxo-5-phenyl-1,3-dihydro-1,4-benzodiazepin-3-yl]-2-(2-fluorophenyl)-5,6,7,8-tetrahydropyrazolo[5,1-b][1,3]oxazepine-3-carboxamide]: the EC50 with RSV A2 (setting [5]) came to 33 nM. Further, the values for the half-life at 1 µM in series [1], in series [2] and in series [3] were 0.853 h, 6.05 h and 5.42 h, respectively. The same compound returned a CC50 in the series “Cell cytotoxicity CC50” of over 25000 nM.
Taken in the same sequence, the figures for `O=C(N[C@H]1N=C(c2ccccc2)c2cccc(F)c2NC1=O)c1c(-c2ccccc2F)nn2c1OCC(F)(F)CC2` [Example 28, 6,6-Difluoro-N-[(3S)-9-fluoro-2-oxo-5-phenyl-2,3-dihydro-1H-1,4-benzodiazepin-3-yl]-2-(2-fluorophenyl)-5H,6H,7H,8H-pyrazolo[3,2-b][1,3]oxazepine-3-carboxamide] were 45 nM, 3.25 h, 11.2 h, 31 h and over 25000 nM.
Consider `O=C(Nc1ccccc1F)N[C@H]1N=C(c2ccccc2)c2ccccc2NC1=O` [RSV604], for which, in the series with RSV, the anti-RSV activity entry is reported as “sub-micromolar”.
The term Cmax denotes the maximum level reached in the sampled fluid or tissue. Consider “N-((S)-9-fluoro-2-oxo-5-phenyl-2,3-dihydro-1H-benzo[b]azepin-3-yl)-2-(2-fluorophenyl)-5,6,7,8-tetrahydro-5,8-methanopyrazolo[5,1-b][1,3]oxazepine-3-carboxamide [Example 19]”, for which the EC50 with RSV A2 stood at 37 nM. Further, the “Liver Microsomal Stability t½” value came out at 2.13 h in series [1] (rat liver microsomes, 0.5 mg/mL protein); 1.23 h in series [2] (human liver microsomes, 0.5 mg/mL protein); 1.92 h in series [3] (dog liver microsomes, 0.5 mg/mL protein). Moreover, in series [4] (8 h, route not stated in the row), the “C 8 h” value is 110 ng/mL. For the same compound, the “IV t½” value in series [4] (IV 1 mg/kg) is on record as 2.30 h. In addition, the “PO AUClast” value in series [4] (PO 10 mg/kg) worked out at 4487 ng·h/mL. For the same compound, in series [4] (PO 10 mg/kg), the “PO t½” value was found to be 2.9 h. In series [4] (PO 10 mg/kg vs IV 1 mg/kg), the F was 39.3%. The same compound registered a Cmax in series [4] (route not stated in the row, study IV 1 mg/kg, PO 10 mg/kg) of 949 ng/mL. In addition, in series [4] (study IV 1 mg/kg, PO 10 mg/kg), the Cl amounted to 16.1 mL/min/kg. For the same compound, in series [4] (study IV 1 mg/kg, PO 10 mg/kg), the Vd worked out at 2.8 L/kg. The compound also returned a CC50 with Hep-G2 cells of over 25000 nM.

These data come from patent US20230365585A1, “BENZODIAZEPINE DERIVATIVES USEFUL IN TREATING A RESPIRATORY SYNCYTIAL VIRUS INFECTION” (priority 2020, published 2023).
